Assays:
[1] = test system: HME cells; test: Labile iron pool assay (calcein) in hepcidin-treated cells; assay type: cell-based, human; conditions: 700 nM hepcidin or vehicle control (FIG. 3B)
Experimental: (§1) Human mammary epithelial (HME) cells were obtained from Lonza (Rockland, Me.). HME cells transduced with h-TERT, SV40 T antigen and high levels of H-ras are termed R5 cells in this report and were a generous gift from the laboratory of Dr. Robert Weinberg, Boston, Mass. (14). All cells were maintained at 37° C. in a humidified atmosphere containing 5% CO2. Cells were maintained in Dulbecco's […] (DMEM-F12) medium (Gibco/BRL [Grand Island, N.Y.]) supplemented with L-glutamine, 10 μg/ml insulin, 10 ng/ml human epidermal growth factor, and 0.5 μg/ml hydrocortisone for 24 hrs prior to harvest. MCF7 and MCF10A cell lines were obtained from the Wake Forest University Comprehensive Cancer Center Tissue Culture Core facility. SUM149 and SUM102 cell lines were a generous gift of Dr. I. Berquin, Wake Forest University School of Medicine. […]
The cellular labile iron pool (LIP) was measured with the fluorescent metallosensor calcein, essentially as described (20). […] Fluorescence was measured at 485 nm excitation and 535 nm emission with a fluorescence plate reader (fmax Fluorescence Microplate Reader, Molecular Devices). After the fluorescence signal was stabilized, SIH was added to remove iron from calcein, causing dequenching. The change in fluorescence following the addition of SIH (ΔF) was used as a measure of the labile iron pool.

[2] = test system: ferritin H; test: Western blot of ferritin H in hepcidin-treated cells; assay type: cell-based, human; conditions: HME cells, 300 nM or 700 nM hepcidin for 6 hours (FIG. 3C)
Experimental: as §1, with “facility.” for “facility. SUM149 and SUM102 cell lines were a generous gift of Dr. I. Berquin, Wake Forest University School of Medicine.”
(§2) Cells were washed once in phosphate-buffered saline (PBS) and scraped. […] Total protein concentrations were determined using BCA reagent (Pierce). […] Ferritin H was detected as previously described (49). Ferroportin was detected using anti-ferroportin-1 antibody (MTP-1, Alpha Diagnostics) followed by horseradish peroxidase conjugated goat anti-rabbit secondary antibody (Bio-Rad). […] Prohepcidin was detected using a rabbit polyclonal antibody (Hepcidin-25 antibody, ab75883, Abcam) followed by horseradish peroxidase conjugated goat anti-rabbit secondary antibody (Bio-Rad). […]

[3] = molecular target: T1, ferroportin (Homo sapiens, UniProt Q9NP59); test: Western blot of ferroportin in hepcidin-treated cells; assay type: cell-based; conditions: HME cells, 300 or 700 nM hepcidin for 6 hours (FIG. 3D)
T1 construct: endogenous in cells; host or cells: primary human mammary epithelial (HME) cells (Lonza)
T1 sequence (Q9NP59 1-571): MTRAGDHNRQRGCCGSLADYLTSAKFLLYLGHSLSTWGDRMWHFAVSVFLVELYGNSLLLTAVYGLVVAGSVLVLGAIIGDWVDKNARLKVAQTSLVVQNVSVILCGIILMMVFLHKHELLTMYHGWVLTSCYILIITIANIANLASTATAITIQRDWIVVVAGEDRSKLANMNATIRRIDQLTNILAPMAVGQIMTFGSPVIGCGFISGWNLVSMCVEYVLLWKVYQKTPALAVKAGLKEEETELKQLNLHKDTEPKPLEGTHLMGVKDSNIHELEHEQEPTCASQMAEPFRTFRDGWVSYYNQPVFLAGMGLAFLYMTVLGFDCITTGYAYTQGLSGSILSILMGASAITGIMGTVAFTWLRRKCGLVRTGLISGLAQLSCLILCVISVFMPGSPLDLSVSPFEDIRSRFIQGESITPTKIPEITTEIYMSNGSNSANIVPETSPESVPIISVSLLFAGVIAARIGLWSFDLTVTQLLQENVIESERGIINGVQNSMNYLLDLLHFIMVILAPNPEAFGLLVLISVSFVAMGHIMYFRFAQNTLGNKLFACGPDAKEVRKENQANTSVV
Experimental: as §1, with “facility.” for “facility. SUM149 and SUM102 cell lines were a generous gift of Dr. I. Berquin, Wake Forest University School of Medicine.”
as §2

In the case of “Hepcidin: Peptide hormone that binds ferroportin and triggers its degradation; obtained from Peptides International, dissolved in water”, the labile iron pool [1] is reported as “increases the labile iron pool”, the “levels of ferritin protein (ferritin H, Western blotting)” value [2] is reported as “increases levels of ferritin protein” and the “ferroportin protein (Western blotting)” value [3] is reported as “Ferroportin is degraded”.

— patent US10473662B2, “Diagnostic and prognostic markers for cancer” (Wake Forest University Health Sciences, priority 2009, dated 2019)
